Measurements reported in patent publication US5118697A, “Cyclic beta-ketoamide ACAT inhibitors” (Warner-Lambert Company, priority 1991, dated 1992).

What follows are molecules tested against T1, acyl-CoA: cholesterol acyltransferase (ACAT) (Oryctolagus cuniculus, UniProt G1SFD9) (assay: in vitro ACAT inhibition test: radiolabeled cholesterol oleate formed from radiolabeled oleic acid in rabbit intestinal microsomes).
T1 construct: tissue preparation containing rabbit intestinal microsomes; from tissue; host or cells: rabbit intestinal microsomes
T1 sequence (G1SFD9 1-524): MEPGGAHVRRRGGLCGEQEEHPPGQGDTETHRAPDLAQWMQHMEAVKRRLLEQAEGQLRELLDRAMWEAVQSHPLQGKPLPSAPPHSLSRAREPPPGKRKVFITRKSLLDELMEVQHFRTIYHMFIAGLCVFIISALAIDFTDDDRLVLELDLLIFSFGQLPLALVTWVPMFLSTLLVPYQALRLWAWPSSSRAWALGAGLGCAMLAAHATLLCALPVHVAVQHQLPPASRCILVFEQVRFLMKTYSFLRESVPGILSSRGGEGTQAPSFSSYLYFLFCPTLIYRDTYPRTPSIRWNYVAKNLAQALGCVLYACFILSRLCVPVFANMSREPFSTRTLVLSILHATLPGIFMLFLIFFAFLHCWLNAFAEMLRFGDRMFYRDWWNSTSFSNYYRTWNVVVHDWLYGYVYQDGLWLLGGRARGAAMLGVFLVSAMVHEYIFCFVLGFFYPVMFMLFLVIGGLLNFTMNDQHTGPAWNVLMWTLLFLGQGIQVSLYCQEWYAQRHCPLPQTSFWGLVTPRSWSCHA
Type: biochemical
Excerpt: As shown by the data presented below in Table 1, the compounds of the present invention are potent inhibitors of the enzyme acyl-CoA: cholesterol acyltransferase (ACAT), and are thus effective in inhibiting the esterification and transport of cholesterol across the intestinal cell wall. The compounds of the present invention are thus useful in pharmaceutical formulations for the treatment of hypercholesterolemia or atherosclerosis.
The ability of representative compounds of the present invention to inhibit ACAT was measured using an in vitro test more fully described in F. J. Field and R. G. Salone, Biochemica et Biophysica 712:557-570 (1982). The test assesses the ability of a test compound to inhibit the acylation of cholesterol by oleic acid by measuring the amount of radiolabeled cholesterol oleate formed from radiolabeled oleic acid in a tissue preparation containing rabbit intestinal microsomes.

SMILES | IC50
CC(C)c1cccc(C(C)C)c1NC(=O)C1CCC(c2ccccc2)(c2ccccn2)C1=O (stereo not drawn) [Example 1] | > 1000 nM
CC(C)c1cccc(C(C)C)c1NC(=O)C1CCCC(Cc2c(CCN(C)C)n(C)c3ccccc23)(c2ccccc2)C1=O (stereo not drawn) [Example 3, N-[2,6 bis(1-methylethyl)phenyl-3-[2-[2-(dimethylamino)ethyl]-1-methyl-1H-indol-3-yl]methyl]-2-oxo-3-phenylcyclohexanecarboxamide] | > 1000 nM
CC(C)c1cccc(C(C)C)c1NC(=O)C1CCCC(Cc2ccccn2)(Cc2ccccn2)C1=O (stereo not drawn) [Example 5, N-[2,6-bis(1-methylethyl)phenyl]-2-oxo-3,3-bis(2-pyridinylmethyl)cyclohexanecarboxamide] | 940 nM
CC(C)c1cccc(C(C)C)c1NC(=O)C1CCCC(CCCCCOc2ccccc2)(c2ccccc2)C1=O (stereo not drawn) [Example 6, N-[2,6-bis (1-methylethyl)phenyl]-2-oxo-3-(5-phenoxypentyl)-3-phenylcyclohexanecarboxamide] | 72 nM

Now from value to molecule:

IC50 | SMILES
1000 nM | CC(C)c1cccc(C(C)C)c1NC(=O)C1CCCC(c2ccccc2)(c2ccccn2)C1=O (stereo not drawn) [Example 2, N-[2,6 bis(1-methylethyl)phenyl]-2-oxo-3-phenyl-3-(2-pyridinyl)cyclohexanecarboxamide]
259 nM | CC(C)c1cccc(C(C)C)c1NC(=O)C1CCCC(Cc2ccccn2)(c2ccccc2)C1=O (stereo not drawn) [Example 4, N-[2,6-bis(1 methylethyl)phenyl]-2-oxo-3-phenyl-3-(2-pyridinylmethyl)cyclohexanecarboxamide]
